Experimental data reported in US4374138A, “Antibacterial amide compounds, compositions, and methods of use” (Warner-Lambert Company, priority 1981, dated 1983).
Values after ≈ are worked out from the molar mass of the structure shown.

Assays:
Assay type in all cases: cell-based
Staph Aureus UC-76 = assay: Minimal Inhibitory Concentration, Staph Aureus UC-76; details: Staphylococcus aureus, UC76
Klebs. Pneu. MGH-2 = assay: Minimal Inhibitory Concentration, Klebs. Pneu. MGH-2
Serr. Mar. IMM-16 = assay: Minimal Inhibitory Concentration, Serr. Mar. IMM-16
Entero C. IMM-11 = assay: Minimal Inhibitory Concentration, Entero C. IMM-11
Pseudo. Aeru 28 = assay: Minimal Inhibitory Concentration, Pseudo. Aeru 28
Pseudo. Aeru BRK = assay: Minimal Inhibitory Concentration, Pseudo. Aeru BRK
Pseudo. Aeru UI-18 = assay: Minimal Inhibitory Concentration, Pseudo. Aeru UI-18
E. Coli Brig = assay: Minimal Inhibitory Concentration, E. Coli Brig; details: Escherichia coli
E. Coli Vogel = assay: Minimal Inhibitory Concentration, E. Coli Vogel; details: Escherichia coli
Prot. Vulg. 1810 = assay: Minimal Inhibitory Concentration, Prot. Vulg. 1810

MIC (Staph Aureus UC-76) | MIC (Klebs. Pneu. MGH-2) | MIC (Serr. Mar. IMM-16) | MIC (Entero C. IMM-11) | MIC (Pseudo. Aeru 28) | MIC (Pseudo. Aeru BRK) | MIC (Pseudo. Aeru UI-18) | MIC (E. Coli Brig) | MIC (E. Coli Vogel) | MIC (Prot. Vulg. 1810) | SMILES
0.8 µg/mL (≈ 1.28 µM) | 3.1 µg/mL (≈ 4.98 µM) | 1.6 µg/mL (≈ 2.57 µM) | 3.1 µg/mL (≈ 4.98 µM) | 0.8 µg/mL (≈ 1.28 µM) | 0.4 µg/mL (≈ 0.642 µM) | 3.1 µg/mL (≈ 4.98 µM) | 6.3 µg/mL (≈ 10.1 µM) | 0.4 µg/mL (≈ 0.642 µM) | 0.8 µg/mL (≈ 1.28 µM) | CCNC(=O)Nc1ccc2[nH]cc(C(=O)N[C@@H](C(=O)N[C@@H]3C(=O)N4[C@@H]3SC(C)(C)[C@@H]4C(=O)O)c3ccc(O)cc3)c(=O)c2c1 [B CH3 CH2, N-[6-[[(Ethylamino)carbonyl]amino]-1,4-dihydro-4-oxo-3-quinolinylcarbonyl]amoxicillin]
0.4 µg/mL (≈ 0.642 µM) | 6.3 µg/mL (≈ 10.1 µM) | 6.3 µg/mL (≈ 10.1 µM) | 3.1 µg/mL (≈ 4.98 µM) | 0.4 µg/mL (≈ 0.642 µM) | 1.6 µg/mL (≈ 2.57 µM) | 1.6 µg/mL (≈ 2.57 µM) | 3.1 µg/mL (≈ 4.98 µM) | 1.6 µg/mL (≈ 2.57 µM) | 1.6 µg/mL (≈ 2.57 µM) | CCNC(=O)Nc1ccc2[nH]c(=O)c(C(=O)N[C@@H](C(=O)N[C@@H]3C(=O)N4[C@@H]3SC(C)(C)[C@@H]4C(=O)O)c3ccc(O)cc3)cc2c1 [A CH3 CH2, N-[6-[[(Ethylamino)carbonyl]amino]-1,2-dihydro-2-oxo-3-quinolinylcarbonyl]amoxicillin]
1.6 µg/mL (≈ 2.35 µM) | 12.5 µg/mL (≈ 18.4 µM) | 12.5 µg/mL (≈ 18.4 µM) | 12.5 µg/mL (≈ 18.4 µM) | 3.1 µg/mL (≈ 4.55 µM) | 3.1 µg/mL (≈ 4.55 µM) | 3.1 µg/mL (≈ 4.55 µM) | 12.5 µg/mL (≈ 18.4 µM) | 6.3 µg/mL (≈ 9.26 µM) | 6.3 µg/mL (≈ 9.26 µM) | CCOC(=O)CNC(=O)Nc1ccc2[nH]c(=O)c(C(=O)N[C@@H](C(=O)N[C@@H]3C(=O)N4[C@@H]3SC(C)(C)[C@@H]4C(=O)O)c3ccc(O)cc3)cc2c1
0.8 µg/mL (≈ 1.18 µM) | 12.5 µg/mL (≈ 18.4 µM) | 12.5 µg/mL (≈ 18.4 µM) | 3.1 µg/mL (≈ 4.56 µM) | 1.6 µg/mL (≈ 2.35 µM) | 1.6 µg/mL (≈ 2.35 µM) | 1.6 µg/mL (≈ 2.35 µM) | 6.3 µg/mL (≈ 9.27 µM) | 1.6 µg/mL (≈ 2.35 µM) | 1.6 µg/mL (≈ 2.35 µM) | CCNC(=O)CNC(=O)Nc1ccc2[nH]c(=O)c(C(=O)N[C@@H](C(=O)N[C@@H]3C(=O)N4[C@@H]3SC(C)(C)[C@@H]4C(=O)O)c3ccc(O)cc3)cc2c1
0.8 µg/mL (≈ 1.23 µM) | 12.5 µg/mL (≈ 19.2 µM) | 12.5 µg/mL (≈ 19.2 µM) | 6.3 µg/mL (≈ 9.67 µM) | 0.8 µg/mL (≈ 1.23 µM) | 0.8 µg/mL (≈ 1.23 µM) | 1.6 µg/mL (≈ 2.46 µM) | 6.3 µg/mL (≈ 9.67 µM) | 1.6 µg/mL (≈ 2.46 µM) | 1.6 µg/mL (≈ 2.46 µM) | CC1(C)S[C@@H]2[C@H](NC(=O)[C@H](NC(=O)c3cc4cc(NC(=O)NCC(N)=O)ccc4[nH]c3=O)c3ccc(O)cc3)C(=O)N2[C@H]1C(=O)O
